This is an account of results in patent US12448363B2, “Kinase inhibitors” (Vidya Therapeutics, Inc., priority 2020, dated 2025).

Test [1] has as its system BTK Activity in RAMOS B Cells. Put plainly: Assay to determine BTK activity in RAMOS B cells (anti-IgM, FLIPR Calcium 6). Type of test: cell-based. The settings on record: EC80 anti-IgM, FLIPR calcium read. How it is done: On the day before assay, Ramos B cells were plated in plating medium (RPMI1640 medium containing 1% FBS and 1× pencillin-streptomycin). On the day of the assay, 2× dye solution was prepared following the manual of the FLIRP Calcium 6 Assay Kit: Dilute the dye with assay buffer (20 mM HEPES in 1×HBSS, pH7.4); Add probenecid to the final concentration of 5 mM; vortex vigorously for 1-2 minutes. Cells were collected by centrifuging, and the pellet was resuspended in plating medium. After counting, cells were resuspended at a density of 3×10^6/ml in plating medium. Equal volume of 2× dye solution was added to the cell suspension. Cells were then plated at 20 μl/well into a 384-well poly-D-lysine coated plate. Plate was centrifuged at 1000 rpm for 3 minutes and then incubated at 37° C. for 2 hours followed by an additional 15-minute incubation at 25° C. Compounds were prepared at 3× concentration in dilution buffer (20 mM HEPES and 0.1% BSA in 1×HBSS, pH 7.4). Serially diluted compound was transferred from source plate to a 384-well compound plate by using an Echo 550 (Labcyte). 20 μl/well compound dilution buffer was added to the compound plate and mixed on plate shaker for 2 mins. 4×EC80 of Anti-IgM (Jackson ImmunoResearch) was prepared in dilution buffer and 20 μl/well was added to a new 384-well compound plate. After 60 mins of incubation at 25° C. in the dark; cell plate, compound plate containing 4×EC80 of anti-IgM and FLIPR tips were placed into FLIPR (Molecular Devices). 10 ul/well of 4×EC80 anti-IgM was transferred to the cell plate by FLIPR. Plates were read for 160 sec with 1 sec interval.
With respect to Ramos activity, Table 9 lists activity as follows: • “A” denotes an IC50 of less than 10 nM; • “B” denotes an IC50 of from 10 nM to less than 100 nM; and • “C” denotes and IC50 of 100 nM or more.

The next test concerns the target BTK (Homo sapiens, UniProt Q06187). Briefly: Assay to determine activity against BTK (EZ reader, FLPeptide). Type of test: biochemical. Set-up: purchased Carna. The settings on record: ATP (1 mM), BTK (2 nM), room temperature for 90 minutes. How it is done:
Solutions of compounds (test or control) in DMSO were prepared at the desired concentrations, and serially diluted to 11 concentrations by 3-fold dilution in 384pp-plate using TECAN EVO200. 20 nL of stock were transferred to 384 plate using Echo550. DMSO was used as vehicle control.
Two separate solutions were prepared—an ATP solution containing MgCl2 (10 mM), Brij-35 (0.01%), DTT (2 mM), BSA (0.05%), EGTA (1 mM), HEPE (pH7.5) (50 mM), FLPeptide (6 uM) and ATP (4 mM); and a BTK solution containing MgCl2 (10 mM), Brij-35 (0.01%), DTT (2 mM), BSA (0.05%), EGTA (1 mM), HEPE (pH7.5) (50 mM) and BTK (2.67 nM). […] (Note the final volume of each well was 20 uL containing MgCl2 (10 mM), Brij-35 (0.01%), DTT (2 mM), BSA (0.05%), EGTA (1 mM), HEPE (pH7.5) (50 mM), FLPeptide (1.5 uM), ATP (1 mM) and BTK (2 nM).
The plates were incubated at room temperature for 90 minutes and then stopping buffer added (75 uL, containing 0.5 M EDTA) to terminate the reaction. Samples from each well were analyzed using EZ reader. The % remaining activity was calculated using read conversion ratio (CR) according to the equation: […]
XLFit (equation 201) was used to calculate IC50s by floating both bottom and top.
With respect to BTK activity, Table 4 lists activity as follows: • “A” denotes an IC50 of less than 10 nM, • “B” denotes an IC50 of from 10 nM to less than 100 nM; and • “C” denotes and IC50 of 100 nM or more.

BTK, sequence (Q06187 whole entry): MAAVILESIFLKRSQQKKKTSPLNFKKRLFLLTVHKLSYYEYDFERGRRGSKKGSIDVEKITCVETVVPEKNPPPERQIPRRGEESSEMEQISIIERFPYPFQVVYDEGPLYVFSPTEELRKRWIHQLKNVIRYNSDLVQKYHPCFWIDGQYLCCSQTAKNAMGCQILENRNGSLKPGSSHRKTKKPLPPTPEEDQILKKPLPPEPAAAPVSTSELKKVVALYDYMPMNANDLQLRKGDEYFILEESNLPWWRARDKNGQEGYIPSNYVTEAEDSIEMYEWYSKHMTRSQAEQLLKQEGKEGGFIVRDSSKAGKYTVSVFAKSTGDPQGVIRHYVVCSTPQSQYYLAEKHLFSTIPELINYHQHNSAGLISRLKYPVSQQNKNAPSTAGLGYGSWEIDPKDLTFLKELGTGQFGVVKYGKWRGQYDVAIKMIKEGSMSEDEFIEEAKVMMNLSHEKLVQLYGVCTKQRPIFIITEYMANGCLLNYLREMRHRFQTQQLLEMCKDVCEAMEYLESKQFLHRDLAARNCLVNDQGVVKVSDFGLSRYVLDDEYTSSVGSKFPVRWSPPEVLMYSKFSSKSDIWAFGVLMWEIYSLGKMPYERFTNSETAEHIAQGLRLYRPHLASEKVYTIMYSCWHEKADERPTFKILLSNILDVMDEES

Regarding `C=CC(=O)N1CCC[C@H](c2c(F)cc(C(N)=O)c3[nH]c(C)c(C(F)F)c23)C1` [Compound 11, (R)-4-(1-acryloylpiperidin-3-yl)-3-(difluoromethyl)-5-fluoro-2-methyl-1H-indole-7-carboxamide], the IC50 (commonly the concentration that inhibits the measured activity by half) in test [1] (Homo sapiens, Ramos) was not below 100 nM; against BTK, not below 100 nM.

Take `C=CC(=O)N1CCC[C@@H](c2c(F)cc(C(N)=O)c3[nH]c(C)c(C(F)F)c23)C1` [Compound 12, (S)-4-(1-acryloylpiperidin-3-yl)-3-(difluoromethyl)-5-fluoro-2-methyl-1H-indole-7-carboxamide]: the IC50 was not below 100 nM in test [1] (Homo sapiens, Ramos) and not below 100 nM at BTK.

Consider `C=CC(=O)N1CCCC(c2c(F)c(F)c(C(N)=O)c3[nH]c(C)c(F)c23)C1` (centres unmarked) [Compound 13, 4-(1-acryloylpiperidin-3-yl)-3,5,6-trifluoro-2-methyl-1H-indole-7-carboxamide], for which the IC50 in test [1] (Homo sapiens, Ramos) was less than 10 nM; at BTK, less than 10 nM.

As for `C=CC(=O)N1CCCC(c2c(F)cc(C(N)=O)c3[nH]c(C)c(C(F)F)c23)C1` (centres unmarked) [Compound 14, 4-(1-acryloylpiperidin-3-yl)-3-(difluoromethyl)-5-fluoro-2-methyl-1H-indole-7-carboxamide], the IC50 is not below 100 nM in test [1] (Homo sapiens, Ramos) and not below 100 nM on BTK.

Consider `CC#CC(=O)N1CCC[C@H](c2c(F)cc(C(N)=O)c3[nH]c(C)c(Cl)c23)C1` [Compound 17, (R)-4-(1-(but-2-ynoyl)piperidin-3-yl)-3-chloro-5-fluoro-2-methyl-1H-indole-7-carboxamide], for which the IC50 is not below 100 nM in test [1] (Homo sapiens, Ramos) and not below 100 nM on BTK.

In the case of `CC#CC(=O)N1CCC[C@@H](c2c(F)cc(C(N)=O)c3[nH]c(C)c(Cl)c23)C1` [Compound 18, (S)-4-(1-(but-2-ynoyl)piperidin-3-yl)-3-chloro-5-fluoro-2-methyl-1H-indole-7-carboxamide], the IC50 in test [1] (Homo sapiens, Ramos) was not below 100 nM; on BTK, not below 100 nM.

In the case of `CC#CC(=O)N1CCC=C(c2c(F)cc(C(N)=O)c3[nH]c(C)c(Cl)c23)C1` [Compound 19, 4-(1-(but-2-ynoyl)-1,2,5,6-tetrahydropyridin-3-yl)-3-chloro-5-fluoro-2-methyl-1H-indole-7-carboxamide], the IC50 is not below 100 nM in test [1] (Homo sapiens, Ramos) and not below 100 nM against BTK.

Take `C=CC(=O)N1CCc2c(cccc2-c2c(F)cc(C(N)=O)c3[nH]c(C)c(C#N)c23)C1` [Compound 20g, 4-(2-acryloyl-1,2,3,4-tetrahydroisoquinolin-5-yl)-3-cyano-5-fluoro-2-methyl-1H-indole-7-carboxamide]: the IC50 in test [1] is 10 to 100 nM; against BTK it was less than 10 nM.

On to `C#CC(=O)N1CCc2c(cccc2-c2c(F)cc(C(N)=O)c3[nH]c(C)c(C)c23)C1` [Compound 20j, 5-fluoro-2,3-dimethyl-4-(2-propioloyl-1,2,3,4-tetrahydroisoquinolin-5-yl)-1H-indole-7-carboxamide], for which the IC50 was 10 to 100 nM in test [1] (Homo sapiens, Ramos) and less than 10 nM against BTK.

On to `C=CC(=O)N1CCc2c(cccc2-c2c(F)c(F)c(C(N)=O)c3[nH]c(C)c(Cl)c23)C1` [Compound 21a, 4-(2-acryloyl-1,2,3,4-tetrahydroisoquinolin-5-yl)-3-chloro-5,6-difluoro-2-methyl-1H-indole-7-carboxamide], for which the IC50 in test [1] is 10 to 100 nM; against BTK, less than 10 nM.

Turning to `C=CC(=O)N1CCc2c(cccc2-c2c(F)c(F)c(C(N)=O)c3[nH]c(C)c(F)c23)C1` [Compound 21d, 4-(2-acryloyl-1,2,3,4-tetrahydroisoquinolin-5-yl)-3,5,6-trifluoro-2-methyl-1H-indole-7-carboxamide], the IC50 in test [1] (Homo sapiens, Ramos) is 10 to 100 nM; on BTK, 10 to 100 nM.

With `C=CC(=O)N1CCc2c(cccc2-c2c(F)c(F)c(C(N)=O)c3[nH]c(C)c(C#N)c23)C1` [Compound 21e, 4-(2-acryloyl-1,2,3,4-tetrahydroisoquinolin-5-yl)-3-cyano-5,6-difluoro-2-methyl-1H-indole-7-carboxamide], the IC50 in test [1] (Homo sapiens, Ramos) lay within 10 to 100 nM; on BTK, 10 to 100 nM.

For `C=CC(=O)N1CCc2c(-c3c(F)cc(C(N)=O)c4[nH]c(C)cc34)cccc2C1C1CC1` (centres unmarked) [Compound 23, 4-(2-acryloyl-1-cyclopropyl-1,2,3,4-tetrahydroisoquinolin-5-yl)-5-fluoro-2-methyl-1H-indole-7-carboxamide], the IC50 lay in the range of 10 to 100 nM in test [1] (Homo sapiens, Ramos) and 10 to 100 nM against BTK.

For the molecule `C=CC(=O)N1Cc2cccc(-c3c(F)cc(C(N)=O)c4[nH]c(C)c(Cl)c34)c2C2(CC2)C1` [Compound 24a, 4-(2′-Acryloyl-2′,3′-dihydro-1′H-spiro[cyclopropane-1,4′-isoquinolin]-5′-yl)-3-chloro-5-fluoro-2-methyl-1H-indole-7-carboxamide], the IC50 in test [1] (Homo sapiens, Ramos) is not below 100 nM; at BTK it was 10 to 100 nM.

On to `C=CC(=O)N1Cc2cccc(-c3c(F)cc(C(N)=O)c4[nH]c(C)cc34)c2C2(CC2)C1` [Compound 24b, 4-(2′-acryloyl-2′,3′-dihydro-1′H-spiro[cyclopropane-1,4′-isoquinolin]-5′-yl)-5-fluoro-2-methyl-1H-indole-7-carboxamide], for which the IC50 was not below 100 nM in test [1] (Homo sapiens, Ramos) and not below 100 nM against BTK.

Take `C=CC(=O)N1CCCc2c(cccc2-c2c(F)cc(C(N)=O)c3[nH]c(C)c(Cl)c23)C1` [Compound 25a, 4-(2-Acryloyl-2,3,4,5-tetrahydro-1H-benzo[c]azepin-6-yl)-3-chloro-5-fluoro-2-methyl-1H-indole-7-carboxamide]: the IC50 in test [1] (Homo sapiens, Ramos) is 10 to 100 nM; against BTK, 10 to 100 nM.

On to `C=CC(=O)N1CCCc2c(cccc2-c2c(F)cc(C(N)=O)c3[nH]c(C)cc23)C1` [Compound 25b, 4-(2-acryloyl-2,3,4,5-tetrahydro-1H-benzo[c]azepin-6-yl)-5-fluoro-2-methyl-1H-indole-7-carboxamide], for which the IC50 in test [1] (Homo sapiens) was not below 100 nM; against BTK, 10 to 100 nM.

For `C=CC(=O)N1CCCc2c(cccc2-c2c(F)cc(C(N)=O)c3[nH]c(C)c(F)c23)C1` [Compound 25e, 4-(2-acryloyl-2,3,4,5-tetrahydro-1H-benzo[c]azepin-6-yl)-3,5-difluoro-2-methyl-1H-indole-7-carboxamide], the IC50 in test [1] (Homo sapiens, Ramos) is not below 100 nM; at BTK it was 10 to 100 nM.

`C=CC(=O)N1CC2CC1c1cccc(-c3c(F)cc(C(N)=O)c4[nH]c(C)c(Cl)c34)c12` (centres unmarked) [Compound 26, 4-(2-acryloyl-1,2,3,4-tetrahydro-1,4-methanoisoquinolin-5-yl)-3-chloro-5-fluoro-2-methyl-1H-indole-7-carboxamide]: the IC50 in test [1] (Homo sapiens, Ramos) is not below 100 nM; against BTK, not below 100 nM.

Turning to `C=CC(=O)N[C@H]1CN(c2c(F)cc(C(N)=O)c3[nH]c(C)c(C)c23)CC[C@@H]1F` [Compound 30, 4-((3S,4S)-3-acrylamido-4-fluoropiperidin-1-yl)-5-fluoro-2,3-dimethyl-1H-indole-7-carboxamide], the IC50 in test [1] (Homo sapiens, Ramos) was 10 to 100 nM; on BTK, 10 to 100 nM.

On to `C=CC(=O)N[C@H]1CN(c2c(F)cc(C(N)=O)c3[nH]c(C)c(C)c23)CC[C@H]1F` [Compound 31, 4-((3S,4R)-3-acrylamido-4-fluoropiperidin-1-yl)-5-fluoro-2,3-dimethyl-1H-indole-7-carboxamide], for which the IC50 fell in the range of 10 to 100 nM in test [1] (Homo sapiens, Ramos) and 10 to 100 nM against BTK.

`C=CC(=O)N[C@H]1C[C@@H](F)CN(c2c(F)cc(C(N)=O)c3[nH]c(C)c(C)c23)C1` [Compound 34, 4-((3S,5R)-3-acrylamido-5-fluoropiperidin-1-yl)-5-fluoro-2,3-dimethyl-1H-indole-7-carboxamide]: the IC50 in test [1] (Homo sapiens, Ramos) was not below 100 nM; against BTK, 10 to 100 nM.
